Experimental data: the supplement of paper PMC10307832

How the values were obtained:
Test in all cases: relative viability (nuclei count vs DMSO), 5 days (fraction); higher = more cells survive
EKVX = system: EKVX
How it was run: (§1)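 Cells from lung cancer lines were seeded into 1536-well plates and, one day later, dosed by pin tool. Treatments were either a single drug or a fixed dose of an anchor drug with five library-drug doses (not always all listed) in √10 steps. After 5 days, nuclei were stained in a one-step fixation (final 0.05% Triton X-100, 1% formaldehyde, 1 ug/ml Hoechst) and counted on 4× images, and relative viability is the treated-to-vehicle nuclei ratio, as the median of duplicate plates.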

LU99A = system: LU99A
How it was run: as §1

EMC-BAC-2 = system: EMC-BAC-2
How it was run: as §1

NCI-H520 = system: NCI-H520
How it was run: as §1

BEN = system: BEN
How it was run: as §1

COR-L 105 = system: COR-L 105
How it was run: as §1

NCI-H522 = system: NCI-H522
How it was run: as §1

NCI-H1651 = system: NCI-H1651
How it was run: as §1

NCI-H460 = system: NCI-H460
How it was run: as §1

NCI-H2023 = system: NCI-H2023
How it was run: as §1

CAL-12T = system: CAL-12T
How it was run: as §1

201T = system: 201T
How it was run: as §1

HCC-15 = system: HCC-15
How it was run: as §1

NCI-H322M = system: NCI-H322M
How it was run: as §1

ABC-1 = system: ABC-1
How it was run: as §1

NCI-H358 = system: NCI-H358
How it was run: as §1

HCC-44 = system: HCC-44
How it was run: as §1

NCI-H838 = system: NCI-H838
How it was run: as §1

NCI-H727 = system: NCI-H727
How it was run: as §1

SW 900 = system: SW 900
How it was run: as §1

LK-2 = system: LK-2
How it was run: as §1

PC-3 [JPC-3] = system: PC-3 [JPC-3]
How it was run: as §1

Molecule Cc1csc(=NC2CCCCC2)n1/N=C/c1ccc(O)c(O)c1O [MIM1] + O=C(c1cc(Cc2n[nH]c(=O)c3ccccc23)ccc1F)N1CCN(C(=O)C2CC2)CC1 [Olaparib] (partner 8 µM) has a relative viability (EKVX; first compound 0.2 µM) of 0.776, a relative viability (EKVX; first compound 0.6325 µM) of 0.785 and a relative viability (EKVX; first compound 2 µM) of 0.59. The relative viability (EKVX; first compound 6.325 µM) was 0.51, the relative viability (EKVX; first compound 20 µM) was 0.412 and the relative viability (LU99A; first compound 0.2 µM) was 0.298. It also gave a relative viability (LU99A; first compound 0.6325 µM) of 0.246, a relative viability (LU99A; first compound 2 µM) of 0.207 and a relative viability (LU99A; first compound 6.325 µM) of 0.272. The relative viability (LU99A; first compound 20 µM) was 0.125, the relative viability (EMC-BAC-2; first compound 0.2 µM) was 0.494 and the relative viability (EMC-BAC-2; first compound 2 µM) was 0.433. It also gave a relative viability (EMC-BAC-2; first compound 6.325 µM) of 0.378, a relative viability (EMC-BAC-2; first compound 20 µM) of 0.212 and a relative viability (NCI-H520; first compound 0.2 µM) of 0.333. For the same molecule, the relative viability (NCI-H520; first compound 0.6325 µM) was 0.346, the relative viability (NCI-H520; first compound 2 µM) was 0.349 and the relative viability (NCI-H520; first compound 6.325 µM) was 0.242. It also gave a relative viability (NCI-H520; first compound 20 µM) of 0.209, a relative viability (BEN; first compound 0.2 µM) of 1.07 and a relative viability (BEN; first compound 0.6325 µM) of 1.18. It also gave a relative viability (BEN; first compound 2 µM) of 1.09, a relative viability (BEN; first compound 6.325 µM) of 1.01 and a relative viability (BEN; first compound 20 µM) of 0.239. For the same molecule, the relative viability (COR-L 105; first compound 0.2 µM) was 0.694, the relative viability (COR-L 105; first compound 0.6325 µM) was 0.673 and the relative viability (COR-L 105; first compound 2 µM) was 0.63. It also gave a relative viability (COR-L 105; first compound 6.325 µM) of 0.554, a relative viability (COR-L 105; first compound 20 µM) of 0.564 and a relative viability (NCI-H522; first compound 0.2 µM) of 0.597. For the same molecule, the relative viability (NCI-H522; first compound 0.6325 µM) was 0.625, the relative viability (NCI-H522; first compound 2 µM) was 0.587 and the relative viability (NCI-H522; first compound 6.325 µM) was 0.725. It also gave a relative viability (NCI-H522; first compound 20 µM) of 0.466, a relative viability (NCI-H1651; first compound 0.2 µM) of 0.184 and a relative viability (NCI-H1651; first compound 0.6325 µM) of 0.174. The relative viability (NCI-H1651; first compound 2 µM) was 0.177, the relative viability (NCI-H1651; first compound 6.325 µM) was 0.159 and the relative viability (NCI-H1651; first compound 20 µM) was 0.153. It also gave a relative viability (NCI-H460; first compound 0.2 µM) of 0.403, a relative viability (NCI-H460; first compound 0.6325 µM) of 0.411 and a relative viability (NCI-H460; first compound 2 µM) of 0.195. For the same molecule, the relative viability (NCI-H460; first compound 6.325 µM) was 0.213, the relative viability (NCI-H460; first compound 20 µM) was 0.0637 and the relative viability (NCI-H2023; first compound 0.2 µM) was 0.501. The relative viability (NCI-H2023; first compound 0.6325 µM) was 0.496, the relative viability (NCI-H2023; first compound 2 µM) was 0.43 and the relative viability (NCI-H2023; first compound 6.325 µM) was 0.255. It also gave a relative viability (NCI-H2023; first compound 20 µM) of 0.0641, a relative viability (CAL-12T; first compound 0.2 µM) of 0.708 and a relative viability (CAL-12T; first compound 0.6325 µM) of 0.685. The relative viability (CAL-12T; first compound 2 µM) was 0.682, the relative viability (CAL-12T; first compound 6.325 µM) was 0.505 and the relative viability (CAL-12T; first compound 20 µM) was 0.396. It also gave a relative viability (201T; first compound 0.2 µM) of 0.833, a relative viability (201T; first compound 0.6325 µM) of 0.863 and a relative viability (201T; first compound 2 µM) of 0.831. It also gave a relative viability (201T; first compound 6.325 µM) of 0.415, a relative viability (201T; first compound 20 µM) of 0.396 and a relative viability (HCC-15; first compound 0.2 µM) of 0.717. The relative viability (HCC-15; first compound 0.6325 µM) was 0.713, the relative viability (HCC-15; first compound 2 µM) was 0.749 and the relative viability (HCC-15; first compound 6.325 µM) was 0.39. It also gave a relative viability (HCC-15; first compound 20 µM) of 0.115, a relative viability (NCI-H322M; first compound 0.2 µM) of 0.742 and a relative viability (NCI-H322M; first compound 0.6325 µM) of 0.683. For the same molecule, the relative viability (NCI-H322M; first compound 2 µM) was 0.72, the relative viability (NCI-H322M; first compound 6.325 µM) was 0.746 and the relative viability (NCI-H322M; first compound 20 µM) was 0.367. For the same molecule, the relative viability (ABC-1; first compound 0.2 µM) was 0.952, the relative viability (ABC-1; first compound 0.6325 µM) was 1.27 and the relative viability (ABC-1; first compound 2 µM) was 1.03. For the same molecule, the relative viability (ABC-1; first compound 6.325 µM) was 0.78, the relative viability (ABC-1; first compound 20 µM) was 0.388 and the relative viability (NCI-H358; first compound 0.2 µM) was 0.558. It also gave a relative viability (NCI-H358; first compound 0.6325 µM) of 0.533, a relative viability (NCI-H358; first compound 2 µM) of 0.516 and a relative viability (NCI-H358; first compound 6.325 µM) of 0.379. The relative viability (NCI-H358; first compound 20 µM) was 0.123, the relative viability (HCC-44; first compound 0.2 µM) was 1.02 and the relative viability (HCC-44; first compound 0.6325 µM) was 0.975. It also gave a relative viability (HCC-44; first compound 2 µM) of 0.859, a relative viability (HCC-44; first compound 6.325 µM) of 0.675 and a relative viability (HCC-44; first compound 20 µM) of 0.455. It also gave a relative viability (NCI-H838; first compound 0.2 µM) of 0.731, a relative viability (NCI-H838; first compound 0.6325 µM) of 0.944 and a relative viability (NCI-H838; first compound 2 µM) of 0.85. The relative viability (NCI-H838; first compound 6.325 µM) was 0.609, the relative viability (NCI-H838; first compound 20 µM) was 0.237 and the relative viability (NCI-H727; first compound 0.2 µM) was 0.7. The relative viability (NCI-H727; first compound 0.6325 µM) was 0.721, the relative viability (NCI-H727; first compound 2 µM) was 0.526 and the relative viability (NCI-H727; first compound 6.325 µM) was 0.748. The relative viability (NCI-H727; first compound 20 µM) was 0.523, the relative viability (SW 900; first compound 0.2 µM) was 0.968 and the relative viability (SW 900; first compound 0.6325 µM) was 0.819. For the same molecule, the relative viability (SW 900; first compound 2 µM) was 0.852, the relative viability (SW 900; first compound 6.325 µM) was 0.209 and the relative viability (SW 900; first compound 20 µM) was 0.181. It also gave a relative viability (LK-2; first compound 0.2 µM) of 0.934, a relative viability (LK-2; first compound 0.6325 µM) of 0.75 and a relative viability (LK-2; first compound 2 µM) of 0.472. It also gave a relative viability (LK-2; first compound 6.325 µM) of 0.685, a relative viability (LK-2; first compound 20 µM) of 0.148 and a relative viability (PC-3 [JPC-3]; first compound 0.2 µM) of 1.14. For the same molecule, the relative viability (PC-3 [JPC-3]; first compound 0.6325 µM) was 1.04, the relative viability (PC-3 [JPC-3]; first compound 2 µM) was 1.07 and the relative viability (PC-3 [JPC-3]; first compound 6.325 µM) was 0.871. For the same molecule, the relative viability (PC-3 [JPC-3]; first compound 20 µM) was 0.504.
